Experimental data reported in the NIST ThermoML archive (doi:10.1021/je200030k).

Assays:
[1] = xn = mol fraction of the nth substance listed; conditions: 101 kPa, Liquid, Vibrating tube method
[2] = refractive index (Na D-line) (dimensionless); xn = mol fraction of the nth substance listed; conditions: 101 kPa, Liquid, Standard Abbe refractometry

CCCCn1cc[n+](C)c1.NCC(=O)[O-] [1-butyl-3-methylimidazolium glycinate] + CC(C)O
Conditions | mass density, [1] [kg/m3] | refractive index, [2]
298.15 K, x1 = 0.0965 | 877.6 | 1.405
298.15 K, x1 = 0.1992 | 957.8 | 1.43
298.15 K, x1 = 0.3059 | 1024.4 | 1.451
298.15 K, x1 = 0.3977 | 1071.9 | 1.466
298.15 K, x1 = 0.5115 | 1121.6 | 1.48
298.15 K, x1 = 0.5868 | 1149.9 | 1.488
298.15 K, x1 = 0.7052 | 1188.4 | 1.499
298.15 K, x1 = 0.8117 | 1217.5 | 1.509
298.15 K, x1 = 0.8775 | – | 1.514
303.15 K, x1 = 0.0965 | 870.7 | 1.404
303.15 K, x1 = 0.1992 | 951.4 | 1.429
303.15 K, x1 = 0.3059 | 1018.6 | 1.45
303.15 K, x1 = 0.3977 | 1066.5 | 1.464
303.15 K, x1 = 0.5115 | 1116.8 | 1.478
303.15 K, x1 = 0.5868 | 1145.4 | 1.487
303.15 K, x1 = 0.7052 | 1184.3 | 1.499
303.15 K, x1 = 0.8117 | 1213.9 | 1.508
303.15 K, x1 = 0.8775 | – | 1.513
308.15 K, x1 = 0.0965 | 863 | 1.403
308.15 K, x1 = 0.1992 | 944.2 | 1.429
308.15 K, x1 = 0.3059 | 1012 | 1.449
308.15 K, x1 = 0.3977 | 1060.6 | 1.463
308.15 K, x1 = 0.5115 | 1111.4 | 1.477
308.15 K, x1 = 0.5868 | 1140.5 | 1.486
308.15 K, x1 = 0.7052 | 1180 | 1.497
308.15 K, x1 = 0.8117 | 1210 | 1.505
308.15 K, x1 = 0.8775 | 1226.4 | 1.51
313.15 K, x1 = 0.0965 | 854.7 | 1.402
313.15 K, x1 = 0.1992 | 936.6 | 1.427
313.15 K, x1 = 0.3059 | 1005 | 1.449
313.15 K, x1 = 0.3977 | 1054.1 | 1.462
313.15 K, x1 = 0.5115 | 1105.8 | 1.477
313.15 K, x1 = 0.5868 | 1135.3 | 1.485
313.15 K, x1 = 0.7052 | 1175.4 | 1.497
313.15 K, x1 = 0.8117 | 1205.9 | 1.506
313.15 K, x1 = 0.8775 | – | 1.511
